Results on 22 compounds are retold here after paper PMC5501184 (Journal of medicinal chemistry, 2017).

Assay [1] has as its target T1, hDAT (Homo sapiens, UniProt Q01959). As to the kind of experiment: PDSP screen: [^3H]24 binding at hDAT. The following applies: for inhibition at 10 µM: read-out: hDAT Binding Inhibition, % of control; for remaining activity at 10 µM: read-out: hDAT Binding Enhancement, % of control.
For assay [2], the target named is T1, hDAT. The following applies: 10 μM; [^3H]24 binding, PDSP; ref Janowsky et al.[3]; cited from earlier work.
In a further assay the target is T2, mA3AR (Mus musculus, UniProt Q61618).
T2 sequence (Q61618 1-319): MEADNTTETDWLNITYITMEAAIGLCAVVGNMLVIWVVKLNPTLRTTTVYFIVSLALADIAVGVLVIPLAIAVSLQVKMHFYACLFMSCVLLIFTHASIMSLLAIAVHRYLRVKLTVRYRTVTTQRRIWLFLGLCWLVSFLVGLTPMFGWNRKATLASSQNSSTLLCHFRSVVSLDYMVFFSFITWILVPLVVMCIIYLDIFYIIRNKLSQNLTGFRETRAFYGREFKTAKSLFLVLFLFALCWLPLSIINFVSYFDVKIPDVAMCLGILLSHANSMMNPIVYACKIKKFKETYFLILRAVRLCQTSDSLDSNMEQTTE
The assay is described as follows: A3AR radioligand. The format is binding. The following applies: for A3AR Binding % at 10 μM (m): mouse, % inhibition at 10 μM, radioligand [^125I]25.

The target of the next assay is hNET (Homo sapiens, UniProt P23975). As to the kind of experiment: [^125I]23 binding to HEK-hNET membranes. The following applies: maximal enhancement.
hNET, sequence (P23975 whole entry): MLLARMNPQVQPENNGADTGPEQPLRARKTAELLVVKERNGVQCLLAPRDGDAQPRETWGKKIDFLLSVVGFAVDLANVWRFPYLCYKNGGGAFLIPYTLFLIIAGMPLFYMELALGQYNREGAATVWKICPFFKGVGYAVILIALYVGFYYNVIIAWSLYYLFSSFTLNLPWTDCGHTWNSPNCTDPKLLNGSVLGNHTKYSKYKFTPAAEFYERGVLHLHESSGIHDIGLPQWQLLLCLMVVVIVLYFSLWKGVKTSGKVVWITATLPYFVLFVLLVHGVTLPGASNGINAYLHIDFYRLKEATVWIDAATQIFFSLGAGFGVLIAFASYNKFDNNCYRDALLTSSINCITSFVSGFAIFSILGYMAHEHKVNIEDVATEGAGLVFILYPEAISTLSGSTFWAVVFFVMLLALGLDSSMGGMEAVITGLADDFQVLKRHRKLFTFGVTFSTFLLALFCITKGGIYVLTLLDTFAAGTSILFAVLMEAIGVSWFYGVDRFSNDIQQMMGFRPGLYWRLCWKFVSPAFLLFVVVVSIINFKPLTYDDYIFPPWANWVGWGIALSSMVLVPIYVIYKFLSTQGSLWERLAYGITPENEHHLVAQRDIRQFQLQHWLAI
The target in assay [3] is T1, hDAT. As to the kind of experiment: [^125I]23 binding to HEK-hDAT membranes. The following applies: maximal enhancement.
Assay [4] relates to mouse chronic constriction injury (CCI) model of neuropathic pain. As to the kind of experiment: mouse chronic constriction injury. The following applies: 3 μmol/kg, p.o.; 7 d post-injury. It counts as in vivo.

SMILES strings stand for the structures. Read-outs that look alike come from different tables or passages of the source. Where only a bound is given, the exact number is not on record here.

T1 sequence (Q01959 whole entry): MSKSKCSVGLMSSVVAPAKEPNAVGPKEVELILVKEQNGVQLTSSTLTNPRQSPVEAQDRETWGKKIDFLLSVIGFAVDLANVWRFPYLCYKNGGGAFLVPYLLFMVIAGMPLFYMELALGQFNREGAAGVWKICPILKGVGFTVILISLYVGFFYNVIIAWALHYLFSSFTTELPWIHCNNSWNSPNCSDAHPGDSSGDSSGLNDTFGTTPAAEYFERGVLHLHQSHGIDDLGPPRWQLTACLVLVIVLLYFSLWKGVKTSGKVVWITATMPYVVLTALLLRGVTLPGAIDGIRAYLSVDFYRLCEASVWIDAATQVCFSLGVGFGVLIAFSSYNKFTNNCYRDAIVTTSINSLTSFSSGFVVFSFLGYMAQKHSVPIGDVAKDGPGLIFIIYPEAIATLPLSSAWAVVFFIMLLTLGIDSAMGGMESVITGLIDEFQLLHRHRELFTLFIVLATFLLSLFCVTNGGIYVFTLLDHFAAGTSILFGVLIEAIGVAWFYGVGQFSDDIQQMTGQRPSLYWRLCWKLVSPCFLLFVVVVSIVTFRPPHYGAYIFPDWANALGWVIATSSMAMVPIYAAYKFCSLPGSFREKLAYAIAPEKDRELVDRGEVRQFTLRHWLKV

Regarding `CCNc1cc(C#Cc2ccc(Cl)s2)nc2c1ncn2[C@H]1[C@H](O)[C@H](O)[C@]2(C(=O)NC)C[C@H]12` [5b], the inhibition at 10 µM at hDAT [1] is -20 to 20%.
Take `CNC(=O)[C@@]12C[C@@H]1[C@@H](n1cnc3c(NC)nc(C#Cc4ccc(Br)s4)nc31)[C@H](O)[C@@H]2O` [compound 2]: the “hDAT Binding Inhibition, % of control” value on hDAT [2] was “NE (no effect)”.
`CNC(=O)[C@@]12C[C@@H]1[C@@H](n1cnc3c(NC)nc(C#Cc4ccc(F)c(F)c4)nc31)[C@H](O)[C@@H]2O` [compound 3]: at hDAT [2], the “hDAT Binding Inhibition, % of control” value is given as “NE (no effect)”.
As to `CNC(=O)[C@@]12C[C@@H]1[C@@H](n1cnc3c(NC)nc(C#Cc4ccc(Cl)s4)cc31)[C@H](O)[C@@H]2O` [compound 6, (1S,2R,3S,4R,5S)-4-(6-((5-Chlorothiophen-2-yl)ethynyl)-4-(methylamino)-1H-imidazo[4,5-c]pyridin-1-yl)-2,3-dihydroxy-N-methylbicyclo[3.1.0]hexane-1-carboxamide], the “A3AR Binding % at 10 μM (m)” value on mA3AR is on record as less than 50%. Besides, the inhibition at 10 µM at hDAT [1] is less than -20%.
As for `CCCNc1nc(C#Cc2ccc(Cl)s2)nc2c1ncn2[C@H]1[C@H](O)[C@H](O)[C@]2(C(=O)NC)C[C@H]12` [compound 7], the “fold greater mA3AR affinity compared to ribose 5′-amide 28” value on mA3AR turned out to be 88 fold. On hDAT [2], the “hDAT Binding Inhibition, % of control” value is on record as “NE (no effect)”.
Regarding `CNc1nc(C#Cc2ccc(Cl)s2)nc2c1ncn2[C@H]1[C@H](O)[C@H](O)[C@]2(C(=O)NCCN)C[C@H]12` [compound 8, (1S,2R,3S,4R,5S)-N-(2-Aminoethyl)-4-(2-((5-chlorothiophen-2-yl)ethynyl)-6-(methylamino)-9H-purin-9-yl)-2,3-dihydroxybicyclo[3.1.0]hexane-1-carboxamide], at hDAT [1], the remaining activity at 10 µM was found to be 133% and the inhibition at 10 µM is less than -20%.
Regarding `CNc1nc(C#Cc2ccc(Cl)s2)nc2c1ncn2[C@H]1[C@H](O)[C@H](O)[C@]2(C(=O)OC)C[C@H]12` [compound 9, Methyl (1S,2R,3S,4R,5S)-4-(2-((5-chlorothiophen-2-yl)ethynyl)-6-(methylamino)-9H-purin-9-yl)-2,3-dihydroxybicyclo[3.1.0]hexane-1-carboxylate], at mA3AR, the Ki was more than 10 µM and the “A3AR Binding % at 10 μM (m)” value is on record as less than 50%. Further, at hNET, the “hNET [^125I]23 binding, % control binding” value was approximately 370%. The “hDAT [^125I]23 binding, % control binding” value on hDAT [3] is recorded as approximately 450%. Moreover, on hDAT [1], the remaining activity at 10 µM stood at 391% and the inhibition at 10 µM is less than -20%.
As for `CCOC(=O)[C@@]12C[C@@H]1[C@@H](n1cnc3c(NC)nc(C#Cc4ccc(Cl)s4)nc31)[C@H](O)[C@@H]2O` [compound 10, Ethyl (1S,2R,3S,4R,5S)-4-(2-((5-chlorothiophen-2-yl)ethynyl)-6-(methylamino)-9H-purin-9-yl)-2,3-dihydroxybicyclo[3.1.0]hexane-1-carboxylate], the “A3AR Binding % at 10 μM (m)” value on mA3AR is less than 50%. In addition, at hNET, the “hNET [^125I]23 binding, % control binding” value is approximately 370%. At hDAT [1], the inhibition at 10 µM was less than -20%.
In the case of `CNc1nc(C#Cc2ccc(Br)s2)nc2c1ncn2[C@H]1[C@H](O)[C@H](O)[C@]2(C(=O)OC)C[C@H]12` [compound 11, Methyl (1S,2R,3S,4R,5S)-4-(2-((5-bromothiophen-2-yl)ethynyl)-6-(methylamino)-9H-purin-9-yl)-2,3-dihydroxybicyclo[3.1.0]hexane-1-carboxylate], the inhibition at 10 µM at hDAT [1] was less than -20%.
As to `CCOC(=O)[C@@]12C[C@@H]1[C@@H](n1cnc3c(NC)nc(C#Cc4ccc(Br)s4)nc31)[C@H](O)[C@@H]2O` [compound 12, Ethyl (1S,2R,3S,4R,5S)-4-(2-((5-bromothiophen-2-yl)ethynyl)-6-(methylamino)-9H-purin-9-yl)-2,3-dihydroxybicyclo[3.1.0]hexane-1-carboxylate], the inhibition at 10 µM on hDAT [1] is less than -20%.
Turning to `CCOC(=O)[C@@]12C[C@@H]1[C@@H](n1cnc3c(NC)nc(C#Cc4ccc(Cl)s4)cc31)[C@H](O)[C@@H]2O` [compound 13, Ethyl (1S,2R,3S,4R,5S)-4-(6-((5-chlorothiophen-2-yl)ethynyl)-4-(methylamino)-1H-imidazo[4,5-c]pyridin-1-yl)-2,3-dihydroxybicyclo[3.1.0]hexane-1-carboxylate], the inhibition at 10 µM on hDAT [1] was less than -20%.
`CCCOC(=O)[C@@]12C[C@@H]1[C@@H](n1cnc3c(NC)nc(C#Cc4ccc(Cl)s4)nc31)[C@H](O)[C@@H]2O` [compound 14, n-Propyl (1S,2R,3S,4R,5S)-4-(2-((5-chlorothiophen-2-yl)ethynyl)-6-(methylamino)-9H-purin-9-yl)-2,3-dihydroxybicyclo[3.1.0]hexane-1-carboxylate]: on hDAT [1], the inhibition at 10 µM was less than -20%.
In the case of `CNc1nc(C#Cc2ccc(Cl)s2)nc2c1ncn2[C@H]1[C@H](O)[C@H](O)[C@]2(C(=O)OC(C)C)C[C@H]12` [compound 15, Isopropyl (1S,2R,3S,4R,5S)-4-(2-((5-chlorothiophen-2-yl)ethynyl)-6-(methylamino)-9H-purin-9-yl)-2,3-dihydroxybicyclo[3.1.0]hexane-1-carboxylate], at hDAT [1] (10 μM, [^3H]24 binding, PDSP), the “hDAT Binding Inhibition, % of control” value was “slightly inhibited binding”.
Turning to `CCCCOC(=O)[C@@]12C[C@@H]1[C@@H](n1cnc3c(NC)nc(C#Cc4ccc(Cl)s4)nc31)[C@H](O)[C@@H]2O` [compound 16, Butyl (1S,2R,3S,4R,5S)-4-(2-((5-chlorothiophen-2-yl)ethynyl)-6-(methylamino)-9H-purin-9-yl)-2,3-dihydroxybicyclo[3.1.0]hexane-1-carboxylate], at hDAT [1], the inhibition at 10 µM is less than -20%.
As for `CNc1nc(C#Cc2ccc(Cl)s2)nc2c1ncn2[C@H]1[C@H](O)[C@H](O)[C@]2(C(=O)OCCC(C)C)C[C@H]12` [compound 17, Isopentyl (1S,2R,3S,4R,5S)-4-(2-((5-chlorothiophen-2-yl)ethynyl)-6-(methylamino)-9H-purin-9-yl)-2,3-dihydroxybicyclo[3.1.0]hexane-1-carboxylate], the inhibition at 10 µM at hDAT [1] was less than -20%.
As to `CNc1nc(C#Cc2ccc(Cl)s2)nc2c1ncn2[C@H]1[C@H](O)[C@H](O)[C@]2(C(=O)OCCC3CCCCC3)C[C@H]12` [compound 18, 2-Cyclohexylethyl (1S,2R,3S,4R,5S)-4-(2-((5-chlorothiophen-2-yl)ethynyl)-6-(methylamino)-9H-purin-9-yl)-2,3-dihydroxybicyclo[3.1.0]hexane-1-carboxylate], the inhibition at 10 µM on hDAT [1] was -20 to 20%.
As for `CNc1nc(C#Cc2ccc(Cl)s2)nc2c1ncn2[C@H]1[C@H](O)[C@H](O)[C@]2(C(=O)OCc3ccccc3)C[C@H]12` [compound 19, Benzyl (1S,2R,3S,4R,5S)-4-(2-((5-chlorothiophen-2-yl)ethynyl)-6-(methylamino)-9H-purin-9-yl)-2,3-dihydroxybicyclo[3.1.0]hexane-1-carboxylate], on hDAT [1], the inhibition at 10 µM is -20 to 20%.
As for `CNc1nc(C#Cc2ccc(Cl)s2)nc2c1ncn2[C@H]1[C@H](O)[C@H](O)[C@]2(C(=O)OCCc3ccccc3)C[C@H]12` [compound 20, 2-Phenylethyl (1S,2R,3S,4R,5S)-4-(2-((5-chlorothiophen-2-yl)ethynyl)-6-(methylamino)-9H-purin-9-yl)-2,3-dihydroxybicyclo[3.1.0]hexane-1-carboxylate], at hDAT [1], the inhibition at 10 µM is -20 to 20%.
The same measure, in the same setting: as for `CNc1nc(C#Cc2ccc(Cl)s2)nc2c1ncn2[C@H]1[C@H](O)[C@H](O)[C@]2(C(=O)OCCCc3ccccc3)C[C@H]12` [compound 21, 3-Phenylpropyl (1S,2R,3S,4R,5S)-4-(2-((5-chlorothiophen-2-yl)ethynyl)-6-(methylamino)-9H-purin-9-yl)-2,3-dihydroxybicyclo[3.1.0]hexane-1-carboxylate], the figure is -20 to 20%.
Take `CNc1nc(C#Cc2ccc(Cl)s2)nc2c1ncn2[C@H]1[C@H](O)[C@H](O)[C@]2(C(=O)O)C[C@H]12` [compound 22, (1S,2R,3S,4R,5S)-4-(2-((5-Chlorothiophen-2-yl)ethynyl)-6-(methylamino)-9H-purin-9-yl)-2,3-dihydroxybicyclo[3.1.0]hexane-1-carboxylic acid]: the inhibition at 10 µM at hDAT [1] was less than -20%.
For the compound `CNC(=O)[C@H]1O[C@@H](n2cnc3c(NC)nc(C#Cc4ccc(Cl)s4)nc32)[C@H](O)[C@@H]1O` [compound 27, (2S,3S,4R,5R)-5-(2-((5-Chlorothiophen-2-yl)ethynyl)-6-(methylamino)-9H-purin-9-yl)-3,4-dihydroxy-N-methyltetrahydrofuran-2-carboxamide], the inhibition at 10 µM on hDAT [1] is less than -20%. In assay [4], the “efficacy in increasing paw withdrawal threshold (PWT)” value was “fully efficacious”.
For `CCCNc1nc(C#Cc2ccc(Cl)s2)nc2c1ncn2[C@@H]1O[C@H](C(=O)NC)[C@@H](O)[C@H]1O` [compound 28, (2S,3S,4R,5R)-5-(2-((5-Chlorothiophen-2-yl)ethynyl)-6-(n-propylamino)-9H-purin-9-yl)-3,4-dihydroxy-N-methyltetrahydrofuran-2-carboxamide], the inhibition at 10 µM on hDAT [1] is less than -20%. For the same compound, in assay [4], the “efficacy in increasing paw withdrawal threshold (PWT)” value is given as “fully efficacious”.
